Data from patent US6337316B1, “Pharmaceutical compositions thereof, and methods of using same” (Applied Research Systems ARS Holding N.V., priority 1997, dated 2002).
Each block holds one molecule with its values, some of them ahead of it. Bridge positions count the residues as written; N and C are the ends. Ends that are not written are not given here.

What was measured:
[1] = tested on: lymphocyte proliferation in the human MLR; assay type: cell-based; settings: for effect on the human MLR in combination with CTLA-4Ig: CTLA-4Ig spiked in at 0.5 μg/ml (FIG. 8); for inhibition of the MLR, in words: control and linear peptides compared with AT 199; for Human MLR (ability to inhibit lymphocyte proliferation, cpm): peptide 12.5 to 100 μM, assays of 1/24, 1/31, 3/6, 4/17, 5/2, one symbol per assay
Description: Whole blood from donors was obtained from Interstate Blood Bank, Memphis, Tenn. Blood specimens were handled in a biosafety level 2 containment facility as recommended for potentially infectious blood specimens in the CDC/NIH manual Biosafety in Microbiological and Biomedical Laboratories; 3rd edition, 1993, page 10. Peripheral blood mononuclear cells (PBMC) were separated from red blood cells and granulocytes by ficoll-hypaque purification. Whole peripheral blood was diluted 1:2 in PBS and 30 ml was overlayed onto 15 ml of ficoll-hypaque in 50 ml polypropylene tubes. The tubes were spun at 400×g for 30 min at 25° C. Following centrifugation, the interface between the upper plasma layer and the lower ficoll layer was collected, cells washed in RPMI-1640 2×, and viable counts determined using trypan blue. Cells to be used as responders in the assay were stored on ice until mitomycin C treatment of stimulator cells was completed.
PBMC, isolated as described above, to be used as stimulators in the assay were adjusted to 2-4×10^6 cells/ml in complete medium (RPMI 1640 containing 10% heat-inactivated human AB serum, 2 mM glutamine, 50 μM 2-mercaptoethanol and 100 U/ml penicillin-100 μg/ml streptomycin), and treated with mitomycin C (25 μg/ml) for 30 min in a 37° C. water bath. Following treatment, cells were washed with S volumes of complete medium 3×, and viable counts determine using trypan blue. To set up autologous stimulation controls some responder cells were also treated with mitomycin C as mentioned above.
Purified CTLA-4Ig fusion protein was produced, as described in Steurer et al. 1995, from a NS-1 cell line kindly donated by Dr. T. Strom (Beth Israel Hospital, Boston, Mass.) as a 1 mg/ml solution in sterile PBS. The protein was stored frozen at −80° C. Upon thawing, the aliquot was stored at 4° C. Purified peptides were lyophilized according to known procedures. Peptides were reconstituted in sterile PBS, pH 7.4 at 2 mM concentration, aliquoted in microfuge cubes and stored frozen at −20° C. For the assay, an aliquot of the peptide was thawed and diluted to 200 μM in complete medium.
For the one-way allogeneic mixed lymphocyte response (MLR) assay, responder cells were plated at 10^6 cells/well, and stimulator cells at 5×10^4 cells/well in 96-well round bottom plates. Cells were incubated with serial dilutions of the anti-CD4 Ab Leu 3A (1 μg/ml-0.06 μg/ml) in triplicate, or an isotype-matched control Ab. Cyclosporin A at 1 μg/ml was used as an additional control.
CTLA-4 Ig was serially diluted an.4 tested from 10 μg/ml to 0.15 μg/ml. Peptides were tested either directly or in the presence of a constant spiked-in dose of CTLA-4 Ig at 0.5 μg/ml. The plates were incubated at 37° C. in a humidified 5% CO2 atmosphere for 7 days.
Proliferation of the cells was determined by pulsing the wells with ^3H-Tdr (1 μCi/well) for the last 18 h of the assay. Plates were harvested using a Tomtec -late harvester and the counts incorporated determined using a Wallac microbetaplate plus reader.
A total of 34 peptides were tested for inhibition of lymphocyte proliferation in the human MLR. Each peptide was tested in a MLR at doses ranging from 12.5 to 100 μM. The activity of each peptide was identified by assigning a + and − tone peptide depending on its ability to inhibit lymphocyte proliferation in the MLR (cpms).

[2] = tested on: murine MLR splenocyte proliferation; test: One-way murine MLR (C57Bl/6 stimulators, BalB/c responders); assay type: cell-based, mouse; settings: peptides tested 100 μM to 1.56 μM (FIG. 9)
Description: One-way murine MLRs were set up using the C57Bl/6 mice splenocytes as stimulators and BalB/c splenocytes as responders.
Spleens were excised from mice (Jackson Laboratories, Bar Harbor, Ma.) 6-8 weeks of age. Cells were separated from the capsule using sterile frosted glass slides and washed in cold RPMI 1640 1×. Red blood cells were lysed by treating the spleen cell suspension with cold Tris ammonium chloride buffer (2 ml/spleen) for 3 min on ice. After lysis, the cells were washed 2× in 5 volumes of complete medium (RPMI 1640 containing 10 % heat-inactivated FBS, 2 mM glutamine, 50 μM 2-mercaptoethanol, 100 U/ml penicillin-100 μg/ml strepcomycin, 1 mM sodium pyruvate and 1 mM non-essential amino acids).
Plastic-adherent cells were removed from splenocytes of BalB/c mice by adjusting the cell concentration to 3×10^6 cells/ml in complete medium and incubating the cells for 1.5-2 h at 37° C. in T-75 flasks. Following incubation non-adherent cells were collected by gently washing the flasks and the percent recovery determined (60-70%). Bal b/C responder cells were stored on ice until mitomycin C treatment of stimulator cells was completed.
Following RBC lysis splenocytes of C57Bl/6 mice were adjusted to 2-4×10^6 cells/ml in complete medium and treated with mitomycin C (50 μg/ml) for 30 min at 37° C. in a humidified 5% CO2 in air atmosphere. Following treatment, cells were washed with 5 volumes of complete medium 3×, and viable counts determined using trypan blue.
To set up autologous stimulation controls some responder cells were also treated with mitomycin C as mentioned above.
For the assay, responder and stimulator cells were plated at 10^5 cells/well in 96-well round bottom plates. […]
Appropriate scrambled peptide controls and matrix controls were included in every assay. […] Proliferation of the cells was determined by pulsing the wells with 3H-Tdr (1 μCi/well) For the last 6 h of the assay. Plates were harvested and the counts incorporated determined as described above.

[3] = tested on: binding of CTLA-4Ig to B7 on Cess B cells; test: CTLA-4Ig/B7 binding assay on Cess B cells by FACS; settings: FACS; assays of 3/24, 3/25, 4/5, 4/25; one symbol per assay
Description: +++ was assigned if the peptide tested gave >50% change in cpm in a dose dependent fashion. In addition to the MLR, these 34 peptides were also evaluated in a CTLA-4Ig/B7 binding assay in which the ability of these peptides to affect the binding of CTLA-4Ig to B7 on Cess B cells was examined by FACS analysis.
As with the MLR, a + or − was assigned to each peptide depending on its ability to effect CTLA-4Ig binding to Cess B cells; where − represents no change in binding, + represents a minor change of <10% in binding, and a ++ represents a change of >20% in binding.

B7 on Cess B cells [4] = test: FACS competition with CTLA-4Ig on Cess B cells; one grade per run; - no change, + <10% change, ++ >20% change
B7 on Cess B cells [5] = test: cell-based or functional assay

percent change in CTLA-4Ig binding to B7 on Cess B cells (FACS) (B7 on Cess B cells [4]): > 20%
B1: AT 135.1 (peptide)
peptide: CSPNQC
modifications: disulfide 1-6 (inferred); not fully specified (C-terminus)

apparent IC50 of inhibition in the MLR (B7 on Cess B cells [5]): 50 to 100 µM
inhibition of human MLR by batch AT 199.2A at 100 µM, one MLR (B7 on Cess B cells [5]): 50%
inhibition of human MLR by batch AT 199.2A, another MLR (B7 on Cess B cells [5]): 25%
inhibition of human MLR by batch AT 199.3 at 100 µM, one MLR (B7 on Cess B cells [5]): 30%
inhibition of lymphocyte proliferation in a human MLR (AT 199, doses up to 100 µM) (B7 on Cess B cells [5]): 70%
inhibition of lymphocyte proliferation in a second human MLR (AT 199, doses up to 100 µM) (B7 on Cess B cells [5]): 30%
B2: AT 199.1 (peptide)
peptide: RKCLMYPPPYYCHH
modifications: disulfide 3-12; not fully specified (C-terminus)

percent change in CTLA-4Ig binding to B7 on Cess B cells (FACS) (B7 on Cess B cells [4]): > 20%
B3: AT 129.1 (peptide)
peptide: CMYPPPYYRGGKC
modifications: disulfide 1-13 (inferred); not fully specified (C-terminus)

The next lines start with the molecule.

Molecule: AT 199.3: resynthesis of AT 199.1 using the original protocols without change (RKCLMYPPPYYCHH; disulfide 3-12 (inferred); not fully specified (C-terminus); also: disulfide cyclisation only partial, mixed cyclic and linear population)
inhibition of the human MLR ([1]; 100 μM, one MLR): 30%
effect on the human MLR in combination with CTLA-4Ig [1]: inhibited the MLR over and above CTLA-4Ig by itself
inhibition of the murine MLR [2]: 85%

Molecule: RKCLAYPPPYYCHH (not fully specified (bridges); cysteine pairing not given here) [AT 200.1]
inhibition of the MLR, in words [1]: did not inhibit any of the MLRs as much as AT 199
Human MLR (ability to inhibit lymphocyte proliferation, cpm) [1]: −, −, −
Binding Assay (effect on CTLA-4Ig binding to Cess B cells) [3]: −, −, −

Molecule: RKCLGYPPPYYCHH (not fully specified (bridges); cysteine pairing not given here) [AT 201.1]
effect on the human MLR in combination with CTLA-4Ig [1]: no effect
inhibition of the MLR, in words [1]: did not inhibit any of the MLRs as much as AT 199
Human MLR (ability to inhibit lymphocyte proliferation, cpm) [1]: −, −, −
inhibition of the murine MLR [2]: 25%
Binding Assay (effect on CTLA-4Ig binding to Cess B cells) [3]: −, −, −

B4: AT 128.1 (peptide)
peptide: CRQADSQVTEC
modifications: disulfide 1-11 (inferred); not fully specified (C-terminus)
percent change in CTLA-4Ig binding to B7 on Cess B cells (FACS) (B7 on Cess B cells [4]): < 10%

B5: AT 117.1 (peptide)
peptide: LDSAVEV-OH
percent change in CTLA-4Ig binding to B7 on Cess B cells (FACS) (B7 on Cess B cells [4]): < 10%
